# According to patent publication US3944498A, “Germicidal detergent containing a thienyliodonium salt” (The Dow Chemical Company, priority 1973, dated 1976):
# What was measured:
# A. aerogenes = experiment: Agar plate kill test with Ivory soap, A. aerogenes; type: cell-based; conditions: Ivory soap; for killing at 5 ppm: 5 p.p.m.
# Protocol: (§1) Phenyl-2-thienyliodonium chloride, 2,2'-bisthienyliodonium chloride, and, for comparative purposes, diphenyliodonium chloride are individually dispersed in Ivory soap to provide concentrates containing 1 part by weight of iodonium salt to 50 parts by weight of soap. The soap concentrates are serially dispersed and serially diluted with liquid nutrient agar at 42°C. to prepare culture media containing various concentrations of one of the iodonium salts. The culture media are uniformly inoculated with S. aureus and plated in petri dishes. The inoculation is carried out from broth cultures of the named organism containing about 5×10^8 organisms per milliliter in the proportion of one-tenth milliliter of bacterial culture per 20 milliliters of cultur medium containing each test compound. In a check operation, nutrient agar containing the same amount of Ivory soap is similarly inoculated with the same organism. After two days' incubation at 37°C., the plates are examined for microbial growth.
# The procedure described above is repeated with varying concentrations of 4-chlorophenyl-2-thienyliodonium chloride, 3,4-dichlorophenyl-2-thienyliodonium chloride, and for comparative purposes bis(4-chlorophenyl)iodonium chloride, phenyl-4-chlorophenyliodonium chloride and bis(2,4-dichlorophenyl)iodoniumchloride in a series of tests wherein the culture media are inoculated individually with the organism A. aerogenes.
# The procedure described above is once again repeated with each of 2,2'-bisthienyliodonium chloride, phenyl-2-thienyliodonium chloride, 4-bromophenyl-2-thienyliodonium chloride, bis(4-bromophenyl)iodonium chloride and bis(4-bromophenyl)iodonium bromide in a series of tests wherein the culture media are inoculated individually with the organism A. aerogenes.
# S. typhosa [1] = experiment: Agar plate kill test with Ivory soap, S. typhosa; type: cell-based
# Protocol: as §1
# The procedure described above is again repeated in a series of tests wherein the culture media are inoculated individually with the organism S. typhosa and wherein the culture media contain varying concentrations of one of the iodonium salts, as set forth in following Table II.
# S. aureus [2] = experiment: Agar plate kill test with Ivory soap, S. aureus; type: cell-based; conditions: 2 days, 37°C
# Protocol: as §1
# S. typhosa [3] = experiment: Nutrient agar growth test, S. typhosa (Example 3); type: cell-based; conditions: 0.001 percent by weight, 2 days, 35°C
# Text: (§2) The 4-chlorophenyl-2-thienyliodonium chloride, trifluoroacetate and trichloroacetate salts are dispersed in melted nutrient agar to produce culture media containing 0.001 percent by weight of one of the salt compounds. Such melted media are then poured into petri dishes and the solidified surface in each dish inoculated with a 24-hour broth culture, one of the organisms S. aureus and S. typhosa. In a check operation, petri dishes containing unmodified nutrient agar are each individually inoculated in the same manner with the named organisms. After two days' incubation at 35°C. the agar surface in each dish is examined for microbial growth. […] At the time of these observations the check dishes are found to support a heavy growth of the two named organisms.
# S. aureus [4] = experiment: Nutrient agar growth test, S. aureus (Example 3); type: cell-based; conditions: 0.001 percent by weight, 2 days, 35°C
# Text: as §2
# S. aureus [5] = experiment: Agar dilution MIC in presence of Ivory soap, S. aureus; type: cell-based; conditions: Staphylococcus aureus; read-out: Minimum growth inhibitory concentration, S. aureus
# Protocol: (§3) The growth-inhibitory activity of the below-indicated compounds against some microorganisms most relevant to the human skin was determined by standard agar dilution techniques to provide the data given in following Table 1.
# (§4) In Table 1, the first column gives the chemical structures of the test compounds, while the additional columns give the names of the test organisms and the minimum inhibitory concentration in parts per million (p.p.m.) of the compounds listed for 100% growth inhibition against the particular microorganisms indicated. […] For each p.p.m. of test compound, 50 p.p.m. of Ivory soap was also present in the culture medium for part A of Table 1, while in part B of Table 1, the culture medium was free of any additive other than the test compound. The data for compounds 13 through 16 of part B of Table 1 were taken from Cannon U.S. Pat. No. 3,207,660 while those for compounds 17 and 18 were taken from trade literature.
# S. typhosa [6] = experiment: Agar dilution MIC in presence of Ivory soap, S. typhosa; type: cell-based; conditions: read-out: Minimum growth inhibitory concentration, S. typhosa
# Protocol: as §3, §4
# P. aeruginosa [7] = experiment: Agar dilution MIC in presence of Ivory soap, P. aeruginosa; type: cell-based; conditions: Pseudomonas aeruginosa; read-out: Minimum growth inhibitory concentration, P. aeruginosa
# Protocol: as §3, §4
# [8] = Range-finding median lethal dose (LD50) in mice; conditions: mouse, in vivo; single oral dose in corn oil, 14-day observation
# Protocol: The range-finding oral median lethal dose (LD50) for iodonium and other antimicrobial compounds, including diphenyl- and thienyliodonium salts as well as several proprietary products was determined in mice. Compounds 1 through 11 of following Table 2 were fed to five groups of two mice each, the test compound being administered in suspension in corn oil as a single oral dose and the mortality experience of the mice was observed over a 14-day period. Data for compounds 12 through 15 were taken from U.S. Pat. No. 3,207,660, and for compounds 16 through 18 were taken from trade literature.
# mice = conditions: cited from earlier work; for Oral LD50 (mice): 12-15 from U.S. Pat. No. 3,207,660, 17, 18 from trade literature
# S. aureus [9] = conditions: absence of soap; 13-16 from Cannon U.S. Pat. No. 3,207,660, 17-18 from trade literature; cited from earlier work
# P. aeruginosa [10] = conditions: absence of soap; 13-16 from Cannon U.S. Pat. No. 3,207,660, 17-18 from trade literature; cited from earlier work
# [11] = Klebsiella aerogenes, 48 h, read-out: Percent Kill of A. aerogenes
# [12] = 48 h, read-out: Percent Kill of S. Typhosa
# [13] = Klebsiella aerogenes, 48 h, 10 p.p.m., read-out: Percent Kill of A. aerogenes
smiles,measurement,setting,value
"c1csc([I+]c2cccs2)c1 [2,2'-bisthienyliodonium chloride]",killing at 5 ppm,A. aerogenes; [11],100%
same,killing at 5 ppm,S. typhosa [1]; [12],100%
same,killing at 5 ppm,"S. aureus [2]; Staphylococcus aureus, 48 h, 5 p.p.m., read-out: percent kill of S. aureus",100%
"Clc1ccc([I+]c2cccs2)cc1Cl [3,4-dichlorophenyl-2-thienyliodonium chloride]",killing at 1 ppm,"A. aerogenes; Klebsiella aerogenes, 48 h, 1 p.p.m., read-out: Percent Kill of A. aerogenes",100%
same,killing at 1 ppm,S. typhosa [1]; [12],100%
Clc1ccc([I+]c2cccs2)cc1.O=C([O-])C(F)(F)F [4-Chlorophenyl-2-thienyliodonium trifluoroacetate],microbial growth on agar surface,S. typhosa [3],free of microbial growth
same,microbial growth on agar surface,S. aureus [4],free of microbial growth
Brc1ccc([I+]c2cccs2)cc1 [4-bromophenyl-2-thienyliodonium chloride],killing at 5 ppm,A. aerogenes; [11],100%
same,killing at 5 ppm,S. typhosa [1]; [12],100%
Clc1ccc([I+]c2cccs2)cc1 [4-chlorophenyl-2-thienyliodonium trichloroacetate],microbial growth on agar surface,S. typhosa [3],free of microbial growth
same,microbial growth on agar surface,S. aureus [4],free of microbial growth
c1ccc([I+]c2ccccc2)cc1 [Compound 1 (Table 1)],MIC,S. aureus [5],> 500 µg/mL
same,MIC,S. typhosa [6],> 500 µg/mL
same,MIC,P. aeruginosa [7],> 500 µg/mL
c1ccc([I+]c2ccccc2)cc1 [Compound 1 (Table 2)],LD50,[8],56.2 mg/kg
c1ccc([I+]c2cccs2)cc1 [Compound 2 (Table 1)],MIC,S. aureus [5],5 µg/mL
same,MIC,S. typhosa [6],5 µg/mL
same,MIC,P. aeruginosa [7],5 µg/mL
c1csc([I+]c2cccs2)c1 [Compound 3 (Table 1)],MIC,S. aureus [5],0.5 µg/mL
same,MIC,S. typhosa [6],0.5 µg/mL
same,MIC,P. aeruginosa [7],5 µg/mL
c1ccc([I+]c2cccs2)cc1 [Compound 3 (Table 2)],LD50,[8],2000 mg/kg
Clc1ccc([I+]c2ccccc2)cc1 [Compound 4 (Table 1)],MIC,S. aureus [5],10 µg/mL
same,MIC,S. typhosa [6],> 10 µg/mL
same,MIC,P. aeruginosa [7],> 100 µg/mL
c1csc([I+]c2cccs2)c1 [Compound 4 (Table 2)],LD50,[8],500 mg/kg
Clc1ccc([I+]c2ccc(Cl)cc2)cc1 [Compound 5 (Table 1)],MIC,S. aureus [5],10 µg/mL
same,MIC,S. typhosa [6],10 µg/mL
same,MIC,P. aeruginosa [7],> 100 µg/mL
Clc1ccc([I+]c2cccs2)cc1 [Compound 5 (Table 2)],LD50,[8],> 4000 mg/kg
Clc1ccc([I+]c2cccs2)cc1 [Compound 6 (Table 1)],MIC,S. aureus [5],1 µg/mL
same,MIC,S. typhosa [6],1 µg/mL
same,MIC,P. aeruginosa [7],1 µg/mL
Clc1ccc([I+]c2cccs2)cc1Cl [Compound 6 (Table 2)],LD50,[8],2000 mg/kg
Clc1ccc([I+]c2ccc(Cl)c(Cl)c2)cc1Cl [Compound 7 (Table 1)],MIC,S. aureus [5],5 µg/mL
same,MIC,S. typhosa [6],> 10 µg/mL
same,MIC,P. aeruginosa [7],> 500 µg/mL
Cc1ccc([I+]c2cccs2)cc1 [Compound 7 (Table 2)],LD50,[8],750 mg/kg
Clc1ccc([I+]c2cccs2)cc1Cl [Compound 8 (Table 1)],MIC,S. aureus [5],1 µg/mL
same,MIC,S. typhosa [6],1 µg/mL
same,MIC,P. aeruginosa [7],1 µg/mL
CCc1ccc([I+]c2cccs2)cc1 [Compound 8 (Table 2)],LD50,[8],1500 mg/kg
CCOc1ccc([I+]c2ccccc2)cc1 [Compound 9 (Table 1)],MIC,S. aureus [5],> 500 µg/mL
same,MIC,S. typhosa [6],> 500 µg/mL
same,MIC,P. aeruginosa [7],> 500 µg/mL
Cc1ccc(C)c([I+]c2cccs2)c1 [Compound 9 (Table 2)],LD50,[8],3000 mg/kg
CCOc1ccc([I+]c2cccs2)cc1 [Compound 10 (Table 1)],MIC,S. aureus [5],5 µg/mL
same,MIC,S. typhosa [6],5 µg/mL
same,MIC,P. aeruginosa [7],50 µg/mL
c1ccc(Oc2ccc([I+]c3cccs3)cc2)cc1 [Compound 10 (Table 2)],LD50,[8],3000 mg/kg
c1ccc(-c2ccc([I+]c3cccs3)cc2)cc1 [Compound 11 (Table 2)],LD50,[8],4000 mg/kg
c1ccc2c(c1)[I+]c1ccccc1-2 [Compound 12 (Table 2)],Oral LD50 (mice),mice,12.5 mg/kg
c1ccc2c(c1)[I+]c1ccccc1-2 [Compound 13 (Table 1)],"Minimum growth inhibitory concentration, S. aureus",S. aureus [9],3.13 ppm
same,"Minimum growth inhibitory concentration, P. aeruginosa",P. aeruginosa [10],3.13 ppm
c1ccc2c(c1)[I+]c1ccccc1-2 [Compound 13 (Table 2)],Oral LD50 (mice),mice,8.75 ± 0.57 mg/kg
c1ccc2c(c1)[I+]c1ccccc1-2 [Compound 14 (Table 1)],"Minimum growth inhibitory concentration, S. aureus",S. aureus [9],5 ppm
same,"Minimum growth inhibitory concentration, P. aeruginosa",P. aeruginosa [10],5 ppm
Clc1cccc2c1-c1c(Cl)cccc1[I+]2 [Compound 14 (Table 2)],Oral LD50 (mice),mice,8 to 10 mg/kg
Clc1cccc2c1-c1ccccc1[I+]2 [Compound 15 (Table 1)],"Minimum growth inhibitory concentration, S. aureus",S. aureus [9],1.56 ppm
same,"Minimum growth inhibitory concentration, P. aeruginosa",P. aeruginosa [10],3.13 ppm
Clc1ccc2c(c1)[I+]c1cc(Cl)ccc1-2 [Compound 15 (Table 2)],Oral LD50 (mice),mice,21.32 ± 3.2 mg/kg
Clc1ccc2c(c1)[I+]c1cc(Cl)ccc1-2 [Compound 16 (Table 1)],"Minimum growth inhibitory concentration, S. aureus",S. aureus [9],1.56 ppm
same,"Minimum growth inhibitory concentration, P. aeruginosa",P. aeruginosa [10],6.25 ppm
C[CH2][Hg][S]c1ccccc1C(=O)[O-].[Na+] [Merthiolate],"LD50 (mice), subcutaneous","mice; S.C., trade literature",66 mg/kg
"Clc1ccc([I+]c2ccc(Cl)cc2Cl)c(Cl)c1 [bis(2,4-dichlorophenyl)iodonium chloride, bis(2,4-dichlorophenyl)iodoniumchloride, reference compound]",killing at 10 ppm,A. aerogenes; [13],0%
same,killing at 10 ppm,S. typhosa [1]; [12],0%
"Brc1ccc([I+]c2ccc(Br)cc2)cc1.[Br-] [bis(4-bromophenyl)iodonium bromide, reference compound]",Percent Kill of A. aerogenes,A. aerogenes; 10 p.p.m.,0%
same,Percent Kill of S. Typhosa,"S. typhosa [1]; 10 p.p.m., Ivory soap",0%
"Brc1ccc([I+]c2ccc(Br)cc2)cc1 [bis(4-bromophenyl)iodonium chloride, reference compound]",killing at 10 ppm,A. aerogenes; [13],0%
same,killing at 10 ppm,S. typhosa [1]; [12],0%
"Clc1ccc([I+]c2ccc(Cl)cc2)cc1 [bis(4-chlorophenyl)iodonium chloride, reference compound]",killing at 100 ppm,"A. aerogenes; Klebsiella aerogenes, 48 h, 100 p.p.m., read-out: Percent Kill of A. aerogenes",0%
"[Cl-].c1ccc([I+]c2ccccc2)cc1 [diphenyliodonium chloride, reference compound]",killing at 500 ppm,"S. typhosa [1]; 48 h, 500 p.p.m., Ivory soap, read-out: Percent Kill of S. Typhosa",0%
same,growth of S. aureus,S. aureus [2]; 500 p.p.m.,heavy uniform growth
Oc1c(Cl)cc(Cl)c(Cl)c1Cc1c(O)c(Cl)cc(Cl)c1Cl [hexachlorophene],Oral LD50 (mice),mice,161 mg/kg
"c1ccc([I+]c2cccs2)cc1 [phenyl-2-thienyliodonium chloride, Phenyl-2-thienyliodonium chloride]",killing at […],"A. aerogenes; Klebsiella aerogenes, 48 h, 2.5 p.p.m., read-out: Percent Kill of A. aerogenes",100%
same,killing at […],S. typhosa [1]; [12],100%
same,killing at […],"S. aureus [2]; Staphylococcus aureus, 48 h, 2.5 p.p.m., read-out: percent kill of S. aureus",100%
"Clc1ccc([I+]c2ccccc2)cc1.[Cl-] [phenyl-4-chlorophenyliodonium chloride, reference compound]",killing at 10 ppm,A. aerogenes; [13],0%
same,killing at 10 ppm,S. typhosa [1]; [12],0%
same,LD50,[8],68 mg/kg
